This is an account of results in patent US8648037B2, “Macrocyclic proline derived HCV serine protease inhibitors” (priority 2010, dated 2014).

Test [1] concerns HCV genotype 3a S138T variant transient replicon. Kind of test: genotype 3a S138T transient replicon assay. The test is classed as cell-based, hepatitis C virus (HCV). To be noted: Hepatitis C virus.
For test [2], the system named is HCV genotype 1b Con1 stable subgenomic replicon. Kind of test: genotype 1b Con1 stable replicon assay (luciferase reporter). To be noted: Hepatitis C virus. It is filed as cell-based, hepatitis C virus (HCV).
Test [3] concerns HCV genotype 3a Q168R variant transient replicon. Description: genotype 3a Q168R transient replicon assay. It is filed as cell-based, hepatitis C virus (HCV). To be noted: Hepatitis C virus. For orientation: A replicon is a self-replicating genome or part of one, used to study replication in cells.
In test [4] the test system is HCV genotype 3a A166T variant transient replicon. Description: genotype 3a A166T transient replicon assay. The test is classed as cell-based, hepatitis C virus (HCV). The conditions noted are these: Hepatitis C virus.
The test system of test [5] is HCV genotype 1a D168V variant transient replicon. Kind of test: genotype 1a D168V transient replicon assay. The conditions noted are these: Hepatitis C virus. The test is classed as cell-based, hepatitis C virus (HCV).
Test [6] has as its system HCV genotype 3a wild-type transient replicon. Kind of test: genotype 3a wild-type transient replicon assay. The test is classed as cell-based, hepatitis C virus (HCV). To be noted: Hepatitis C virus.
Test [7] deals with HCV genotype 1b D168V variant transient replicon. Description: genotype 1b D168V transient replicon assay. It is filed as cell-based, hepatitis C virus (HCV). To be noted: Hepatitis C virus.
Test [8] relates to HCV genotype 1a D168E variant transient replicon. Description: genotype 1a D168E transient replicon assay. To be noted: Hepatitis C virus. The test is classed as cell-based, hepatitis C virus (HCV).
Test [9] has as its system HCV genotype 1b R155K variant transient replicon. Kind of test: genotype 1b R155K transient replicon assay. The test is classed as cell-based, hepatitis C virus (HCV). The conditions noted are these: Hepatitis C virus.
In test [10] the test system is HCV genotype 1b wild-type transient replicon. Kind of test: genotype 1b wild-type transient replicon assay. The test is classed as cell-based, hepatitis C virus (HCV). The conditions noted are these: Hepatitis C virus.
For test [11], the system named is HCV genotype 1a R155K variant transient replicon. Kind of test: genotype 1a R155K transient replicon assay. It is filed as cell-based, hepatitis C virus (HCV). To be noted: Hepatitis C virus.
Test [12] deals with HCV genotype 1a (1a-H77) stable subgenomic replicon. Description: genotype 1a Huh-7 stable replicon assay (luciferase reporter). The test is classed as cell-based, hepatitis C virus (HCV). To be noted: Hepatitis C virus, 5% FBS.
Test [13] concerns HCV genotype 1a wild-type transient replicon. Description: genotype 1a wild-type transient replicon assay. The test is classed as cell-based, hepatitis C virus (HCV). To be noted: Hepatitis C virus.
The subject of test [14] is HCV genotype 3a wild-type stable replicon (chimeric, NS3 gene from genotype 3a isolates). Description: genotype 3a wild-type stable replicon assay. To be noted: Hepatitis C virus. The test is classed as cell-based, hepatitis C virus (HCV).
Test [15] has as its system HCV R155K variants. The conditions noted are these: Bartels 2008, Lu 2004, Zhou 2007; cited from earlier work.
Test [16] concerns HCV. The conditions noted are these: after R155K (danoprevir) or R155K/D168V (vaniprevir) variants detected; cited from earlier work.

With `CC[C@@H]1C[C@]1(NC(=O)[C@@H]1C[C@@H]2CN1C(=O)[C@H](C(C)(C)C)NC(=O)O[C@@H]1CCC[C@H]1OC/C=C/C(F)(F)c1nc3ccccc3nc1O2)C(=O)NS(=O)(=O)C1CC1` [Example 4], the concentration for a half-maximal effect (EC50) (as a rule, the concentration giving half of the maximal effect) in test [1] lay in the range of 100 to 1000 nM; in test [2], 1 to 10 nM; in [3] it was 100 to 1000 nM; in test [4], 100 to 500 nM; in [5], 10 to 1000 nM; in [6], 10 to 100 nM. Besides, the concentration giving a half-maximal response (EC50) in test [7] was 1 to 100 nM; in [8] it was less than 1 nM; in test [9], less than 1 nM; in test [10], less than 1 nM; in test [11], 0.1 to 1 nM; in [12], less than 1 nM. In test [13], the concentration for a half-maximal effect (EC50) was 0.1 to 1 nM.

Regarding `CC(C)(C)[C@@H]1NC(=O)O[C@@H]2CCC[C@H]2OC/C=C/C(F)(F)c2nc3ccccc3nc2O[C@@H]2C[C@@H](C(=O)N[C@]3(C(=O)NS(=O)(=O)C4CC4)C[C@H]3C(F)F)N(C2)C1=O` [Example 2], the half-maximal effective concentration (EC50) in test [1] is 100 to 1000 nM; in [2], 1 to 10 nM; in test [3] it was 100 to 1000 nM; in test [4] it was less than 100 nM; in test [5], less than 1 nM; in test [6], less than 10 nM. For the same molecule, the EC50 was 1 to 100 nM in test [7]; less than 1 nM in test [8]; less than 1 nM in test [9]; less than 1 nM in [10]; less than 0.1 nM in test [11]; 1 to 10 nM in test [12]. Besides, the EC50 in [14] is less than 10 nM; in test [13] it was 0.1 to 1 nM.

In the case of `C=C[C@@H]1C[C@]1(NC(=O)[C@@H]1C[C@@H]2CN1C(=O)[C@H](C(C)(C)C)NC(=O)O[C@@H]1CCC[C@H]1OC/C=C/C(F)(F)c1nc3ccccc3nc1O2)C(=O)NS(=O)(=O)C1(C)CC1` [Example 5], the EC50 in test [2] is 1 to 10 nM; in [3] it was less than 100 nM; in test [4], less than 100 nM; in [5], less than 1 nM; in [6], less than 10 nM; in test [7], less than 1 nM. The concentration for a half-maximal effect (EC50) in test [8] was less than 1 nM; in [9] it was less than 1 nM; in test [10] it was less than 1 nM; in test [11], less than 0.1 nM; in [12] it was less than 1 nM; in [14], less than 10 nM. Moreover, the EC50 in [13] is less than 0.1 nM.

Turning to `CC[C@@H]1C[C@]1(NC(=O)[C@@H]1C[C@@H]2CN1C(=O)[C@H](C(C)(C)C)NC(=O)O[C@@H]1CCC[C@H]1OC/C=C/C(F)(F)c1nc3ccccc3nc1O2)C(=O)NS(=O)(=O)C1(C)CC1` [Example 8], the concentration for a half-maximal effect (EC50) in [1] fell in the range of 100 to 1000 nM; in test [2], 1 to 10 nM; in [3] it was 100 to 1000 nM; in test [4], 100 to 500 nM; in test [5], 1 to 10 nM; in [6], 10 to 100 nM. The concentration giving a half-maximal response (EC50) was 1 to 100 nM in test [7]; less than 1 nM in test [8]; less than 1 nM in [9]; less than 1 nM in [10]; less than 0.1 nM in test [11]; less than 1 nM in test [12]. In [13], this molecule showed a concentration giving a half-maximal response (EC50) of 0.1 to 1 nM.

Consider `COc1ccc2c(O[C@@H]3C[C@H]4C(=O)N[C@]5(C(=O)O)C[C@H]5/C=C\CCCCC[C@H](NC(=O)OC5CCCC5)C(=O)N4C3)cc(-c3csc(NC(C)C)n3)nc2c1` [BILN 2061], for which the “resistance conferred by R155K variants” value in [15] was “high-level resistance”.

On to `C=C[C@@H]1C[C@]1(NC(=O)[C@@H]1C[C@@H]2CN1C(=O)[C@H](C(C)(C)C)NC(=O)O[C@@H]1CCC[C@H]1OC/C=C/C(F)(F)c1nc3ccccc3nc1O2)C(=O)NS(=O)(=O)C1CC1` [Example 1], for which the concentration for a half-maximal effect (EC50) was in the range of 100 to 1000 nM in [1]; 1 to 10 nM in test [2]; 100 to 1000 nM in test [3]; 100 to 500 nM in test [4]; 1 to 10 nM in test [5]; 10 to 100 nM in [6]. Besides, the 50% effective concentration (EC50) in test [7] is less than 1 nM; in [8], less than 1 nM; in [9], less than 1 nM; in test [10] it was less than 1 nM; in test [11] it was 0.1 to 1 nM; in [12] it was less than 1 nM. For the same molecule, the figures for the half-maximal effective concentration (EC50) in test [14] and in test [13] were less than 10 nM and 0.1 to 1 nM, respectively.

For the molecule `CC(C)(C)[C@@H]1NC(=O)O[C@@H]2CCC[C@H]2OC/C=C/C(F)(F)c2nc3ccccc3nc2O[C@@H]2C[C@@H](C(=O)N[C@]3(C(=O)NS(=O)(=O)C4(C)CC4)C[C@H]3C(F)F)N(C2)C1=O` [Example 6], the concentration for a half-maximal effect (EC50) in test [1] was less than 100 nM; in test [2], 1 to 10 nM; in [3] it was less than 100 nM; in test [4] it was less than 100 nM; in test [5] it was less than 1 nM; in test [6], less than 10 nM. Further, the EC50 in test [7] was less than 1 nM; in test [8] it was less than 1 nM; in [9] it was less than 1 nM; in test [10], less than 1 nM; in test [11] it was less than 0.1 nM; in test [12] it was less than 1 nM. Further, the figures for the EC50 in test [14] and in test [13] were less than 10 nM and less than 0.1 nM, respectively.

For the molecule `CC[C@@H]1C[C@]1(NC(=O)[C@@H]1C[C@@H]2CN1C(=O)[C@H](C(C)(C)C)NC(=O)OCC(C)(C)CCCCc1cccc3c1CN(C3)C(=O)O2)C(=O)NS(=O)(=O)C1CC1` [vaniprevir], the “viral load in patients receiving treatment” value in [16] was “viral load rebound”.

Consider `CC(C)(C)OC(=O)N[C@H]1CCCCC/C=C\[C@@H]2C[C@@]2(C(=O)NS(=O)(=O)C2CC2)NC(=O)[C@@H]2C[C@@H](OC(=O)N3Cc4cccc(F)c4C3)CN2C1=O` [danoprevir], for which the “resistance conferred by R155K variants” value in test [15] was “high-level resistance”. Further, in [16], the “viral load in patients receiving treatment” value is listed as “Viral load rebound”.
